Assay results: patent publication US9150566B2, “2-(1,2,3-triazol-2-yl)benzamide and 3-(1,2,3-triazol-2-YL)picolinamide derivatives as orexin receptor antagonists” (ACTELION PHARMACEUTICALS LTD., priority 2011, dated 2015)
Where two headings read alike, the source gives them in different places.

How the values were obtained:
human orexin-2 receptor = human orexin-2 receptor (Homo sapiens (Human), UniProt O43614); experiment: In vitro intracellular calcium measurements (FLIPR), antagonistic activity on orexin-2 receptor; type: cell-based; conditions: read-out: IC50 OX2
Sequence of human orexin-2 receptor (O43614 whole entry): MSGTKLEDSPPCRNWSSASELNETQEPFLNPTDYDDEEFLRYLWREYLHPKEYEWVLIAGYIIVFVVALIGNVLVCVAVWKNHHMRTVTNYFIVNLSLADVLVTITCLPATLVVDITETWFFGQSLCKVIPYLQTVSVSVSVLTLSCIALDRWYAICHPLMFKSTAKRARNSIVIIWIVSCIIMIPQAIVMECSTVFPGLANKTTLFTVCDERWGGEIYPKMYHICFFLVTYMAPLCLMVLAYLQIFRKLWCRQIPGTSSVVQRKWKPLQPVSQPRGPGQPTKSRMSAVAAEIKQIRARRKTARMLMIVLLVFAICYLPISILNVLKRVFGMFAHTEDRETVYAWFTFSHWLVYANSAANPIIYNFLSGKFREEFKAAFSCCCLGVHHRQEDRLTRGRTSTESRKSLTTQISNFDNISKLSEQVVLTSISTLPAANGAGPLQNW
How it was run: (§1)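 Recombinant CHO lines bearing human OX1 or OX2 receptors received test antagonist 120 min before agonist addition.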

CYP3A4 = CYP3A4 (Homo sapiens (Human), UniProt P08684); experiment: CYP3A4 inhibition assay (human liver microsomes, testosterone 6β-hydroxylation); conditions: read-out: CYP3A4 IC50, 40 μM testosterone
Sequence of CYP3A4 (P08684 whole entry): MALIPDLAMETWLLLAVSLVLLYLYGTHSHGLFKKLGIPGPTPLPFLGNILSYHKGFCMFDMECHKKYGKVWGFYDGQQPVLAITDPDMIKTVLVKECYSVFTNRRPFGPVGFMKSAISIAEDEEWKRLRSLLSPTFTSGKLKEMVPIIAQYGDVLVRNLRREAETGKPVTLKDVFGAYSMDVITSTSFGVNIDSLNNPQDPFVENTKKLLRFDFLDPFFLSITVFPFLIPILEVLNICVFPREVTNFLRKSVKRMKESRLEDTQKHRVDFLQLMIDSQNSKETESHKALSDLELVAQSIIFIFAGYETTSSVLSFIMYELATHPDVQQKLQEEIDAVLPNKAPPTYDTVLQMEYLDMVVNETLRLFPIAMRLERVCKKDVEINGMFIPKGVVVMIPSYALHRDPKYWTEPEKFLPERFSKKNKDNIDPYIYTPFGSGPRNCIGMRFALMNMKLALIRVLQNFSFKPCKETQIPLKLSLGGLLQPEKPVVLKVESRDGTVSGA

human orexin-1 receptor = human orexin-1 receptor (Homo sapiens (Human), UniProt O43613); experiment: In vitro intracellular calcium measurements (FLIPR), antagonistic activity on orexin-1 receptor; type: cell-based; conditions: read-out: IC50 OX1
Sequence of human orexin-1 receptor (O43613 whole entry): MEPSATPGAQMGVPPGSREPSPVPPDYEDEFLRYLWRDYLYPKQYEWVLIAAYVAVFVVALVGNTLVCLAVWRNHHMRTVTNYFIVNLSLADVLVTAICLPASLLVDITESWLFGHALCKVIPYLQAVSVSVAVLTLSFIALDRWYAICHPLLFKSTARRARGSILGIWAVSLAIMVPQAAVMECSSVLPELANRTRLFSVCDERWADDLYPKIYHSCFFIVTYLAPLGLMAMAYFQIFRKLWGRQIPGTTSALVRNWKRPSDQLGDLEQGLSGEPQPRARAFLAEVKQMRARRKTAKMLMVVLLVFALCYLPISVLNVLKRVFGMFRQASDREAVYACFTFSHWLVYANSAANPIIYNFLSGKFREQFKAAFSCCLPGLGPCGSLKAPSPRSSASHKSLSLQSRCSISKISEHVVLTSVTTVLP
How it was run: as §1

[1] = CHO cells expressing human orexin-2 receptor, FLIPR, 3 nM orexin-A agonist, 120 min antagonist incubation, geometric mean if determined several times
[2] = CHO cells expressing human orexin-1 receptor, FLIPR, 3 nM orexin-A agonist, 120 min antagonist incubation, geometric mean if determined several times

| Compound | IC50 (human orexin-2 receptor; [1]) [nM] | IC50 (CYP3A4) [nM] | IC50 (human orexin-1 receptor; [2]) [nM] | IC50 (human orexin-2 receptor) [nM] | IC50 (human orexin-1 receptor) [nM] |
| --- | --- | --- | --- | --- | --- |
| Cc1cccc(C(=O)N2CCOC[C@H]2Cc2cc(-n3nccn3)ccc2Cl)c1-n1nccn1 [Example 122, [(R)-3-(2-Chloro-5-[1,2,3]triazol-2-yl-benzyl)-morpholin-4-yl]-(3-methyl-2-[1,2,3]triazol-2-yl-phenyl)-methanone] | 1610 | 18000 | 6 |  |  |
| COc1ccc(-n2nccn2)c(C(=O)N2CCOC[C@H]2Cc2cc(-n3nccn3)ccc2F)c1 [Example 131, [(R)-3-(2-Fluoro-5-[1,2,3]triazol-2-yl-benzyl)-morpholin-4-yl]-(5-methoxy-2-[1,2,3]triazol-2-yl-phenyl)-methanone] | 1130 | 35000 | 4 |  |  |
| Cc1ccc(-n2nccn2)c(C(=O)N2CCOC[C@H]2Cc2cccc(-c3ccccn3)c2)c1 [Example 24, (5-Methyl-2-[1,2,3]triazol-2-yl-phenyl)-[(R)-3-(3-pyridin-2-yl-benzyl)-morpholin-4-yl]-methanone] | 1030 | > 50000 | 3 |  |  |
| Cc1ccc(C(=O)N2[C@H](Cc3cccc(-n4nccn4)c3)COC[C@@H]2C)c(-n2nccn2)c1 [Example 71, [(3S,5R)-3-Methyl-5-(3-[1,2,3]triazol-2-yl-benzyl)-morpholin-4-yl]-(4-methyl-2-[1,2,3]triazol-2-yl-phenyl)-methanone] |  | 14000 |  | 2190 | 35 |
| COc1ccc(-n2nccn2)c(C(=O)N2CCOC[C@H]2Cc2cc(-n3nccn3)ccc2F)c1F [Example 133, (2-Fluoro-3-methoxy-6-[1,2,3]triazol-2-yl-phenyl)-[(R)-3-(2-fluoro-5-[1,2,3]triazol-2-yl-benzyl)-morpholin-4-yl]-methanone] | 2600 | 37000 | 22 |  |  |
| C[C@@H]1CN(C(=O)c2ccccc2-n2nccn2)[C@H](Cc2cccc(-c3ncccn3)c2)CO1 [Example 108, [(2R,5R)-2-Methyl-5-(3-pyrimidin-2-yl-benzyl)-morpholin-4-yl]-(2-[1,2,3]triazol-2-yl-phenyl)-methanone] | 855 | 46000 | 10 |  |  |
| O=C(c1ccccc1-n1nccn1)N1CCOC[C@H]1Cc1cc(-n2nccn2)ccc1F [Example 57, [(R)-3-(2-Fluoro-5-[1,2,3]triazol-2-yl-benzyl)-morpholin-4-yl]-(2-[1,2,3]triazol-2-yl-phenyl)-methanone] | 2740 | 20000 | 48 |  |  |
| COc1ccc(-n2nccn2)c(C(=O)N2CCOC[C@H]2Cc2cccc(-n3nccn3)c2)c1 [Example 32, (5-Methoxy-2-[1,2,3]triazol-2-yl-phenyl)-[(R)-3-(3-[1,2,3]triazol-2-yl-benzyl)-morpholin-4-yl]-methanone] |  | > 50000 |  | 489 | 7 |
| Cc1ccc(-n2cccn2)cc1C[C@@H]1COCCN1C(=O)c1cccc(C)c1-n1nccn1 [Example 190, [(R)-3-(2-Methyl-5-pyrazol-1-yl-benzyl)-morpholin-4-yl]-(3-methyl-2-[1,2,3]triazol-2-yl-phenyl)-methanone] | 3770 | 26000 | 25 |  |  |
| COc1ccc(C[C@@H]2COCCN2C(=O)c2cc(C)ccc2-n2nccn2)cc1-c1ncon1 [Example 58, [(R)-3-(4-Methoxy-3-[1,2,4]oxadiazol-3-yl-benzyl)-morpholin-4-yl]-(5-methyl-2-[1,2,3]triazol-2-yl-phenyl)-methanone] | 42 | 42000 | 0.7 |  |  |
| CC[C@@H]1CN(C(=O)c2ccc(C)cc2-n2nccn2)[C@H](Cc2cccc(-n3nccn3)c2)CO1 [Example 144, [(2R,5R)-2-Ethyl-5-(3-[1,2,3]triazol-2-yl-benzyl)-morpholin-4-yl]-(4-methyl-2-[1,2,3]triazol-2-yl-phenyl)-methanone] | 104 | 9600 | 5 |  |  |
| Cc1ccc(C(=O)N2C[C@H](C)OC[C@H]2Cc2cccc(-n3nccn3)c2)c(-n2nccn2)c1 [Example 96, [(2S,5R)-2-Methyl-5-(3-[1,2,3]triazol-2-yl-benzyl)-morpholin-4-yl]-(4-methyl-2-[1,2,3]triazol-2-yl-phenyl)-methanone] |  | 28000 |  | 390 | 10 |
| Cc1ccc(-n2nccn2)c(C(=O)N2CCOC[C@H]2Cc2cc(-n3cccn3)ccc2C)c1 [Example 188, [(R)-3-(2-Methyl-5-pyrazol-1-yl-benzyl)-morpholin-4-yl]-(5-methyl-2-[1,2,3]triazol-2-yl-phenyl)-methanone] | 2130 | 14000 | 21 |  |  |
| Cc1ccc(-n2nccn2)cc1C[C@@H]1COCCN1C(=O)c1ccc(Cl)cc1-n1nccn1 [Example 191, (4-Chloro-2-[1,2,3]triazol-2-yl-phenyl)-[(R)-3-(2-methyl-5-[1,2,3]triazol-2-yl-benzyl)-morpholin-4-yl]-methanone] | 1040 | 14000 | 12 |  |  |
| O=C(c1ccc(F)cc1-n1nccn1)N1CCOC[C@H]1Cc1cccc(-n2nccn2)c1 [Example 36, (4-Fluoro-2-[1,2,3]triazol-2-yl-phenyl)-[(R)-3-(3-[1,2,3]triazol-2-yl-benzyl)-morpholin-4-yl]-methanone] |  | 36000 |  | 889 | 41 |

Now from value to molecule, other results behind:

| IC50 (human orexin-2 receptor; [1]) [nM] | IC50 (CYP3A4) [nM] | IC50 (human orexin-1 receptor; [2]) [nM] | Compound | IC50 (human orexin-2 receptor) [nM] | IC50 (human orexin-1 receptor) [nM] |
| --- | --- | --- | --- | --- | --- |
| 159 | 7400 | 4 | O=C(c1ccc(C(F)(F)F)cc1-n1nccn1)N1CCOC[C@H]1Cc1cc(-n2nccn2)ccc1F [Example 138, [(R)-3-(2-Fluoro-5-[1,2,3]triazol-2-yl-benzyl)-morpholin-4-yl]-(2-[1,2,3]triazol-2-yl-4-trifluoromethyl-phenyl)-methanone] |  |  |
| 830 | 36000 | 19 | O=C(c1cccc(Cl)c1-n1nccn1)N1CCOC[C@H]1Cc1cc(-c2ncon2)ccc1F [Example 180, (3-Chloro-2-[1,2,3]triazol-2-yl-phenyl)-[(R)-3-(2-fluoro-5-[1,2,4]oxadiazol-3-yl-benzyl)-morpholin-4-yl]-methanone] |  |  |
| 457 | 2000 | 2 | O=C(c1ccccc1-n1nccn1)N1CCOC[C@H]1Cc1cccc(-c2nccs2)c1 [Example 44, [(R)-3-(3-Thiazol-2-yl-benzyl)-morpholin-4-yl]-(2-[1,2,3]triazol-2-yl-phenyl)-methanone] |  |  |
| 1500 | 30000 | 26 | Cc1cccc(C(=O)N2CCOC[C@H]2Cc2cc(-n3nccn3)ccc2F)c1-n1nccn1 [Example 127, [(R)-3-(2-Fluoro-5-[1,2,3]triazol-2-yl-benzyl)-morpholin-4-yl]-(3-methyl-2-[1,2,3]triazol-2-yl-phenyl)-methanone] |  |  |
| 1820 | > 50000 | 46 | O=C(c1cccc(F)c1-n1nccn1)N1CCOC[C@H]1Cc1cccc(-n2nccn2)c1 [Example 54, (3-Fluoro-2-[1,2,3]triazol-2-yl-phenyl)-[(R)-3-(3-[1,2,3]triazol-2-yl-benzyl)-morpholin-4-yl]-methanone] |  |  |
| 96 | 19000 | 2 | C[C@@H]1CN(C(=O)c2cc(Cl)ccc2-n2nccn2)[C@H](Cc2cccc(-n3nccn3)c2)CO1 [Example 184, (5-Chloro-2-[1,2,3]triazol-2-yl-phenyl)-[(2R,5R)-2-methyl-5-(3-[1,2,3]triazol-2-yl-benzyl)-morpholin-4-yl]-methanone] |  |  |
| 1480 | 17000 | 40 | O=C(c1ccccc1-n1nccn1)N1CCOC[C@H]1Cc1cc(-n2nccn2)ccc1Cl [Example 126, [(R)-3-(2-Chloro-5-[1,2,3]triazol-2-yl-benzyl)-morpholin-4-yl]-(2-[1,2,3]triazol-2-yl-phenyl)-methanone] |  |  |
| 997 | 22000 | 9 | Cc1ccc(-n2nccn2)cc1C[C@@H]1COCCN1C(=O)c1cccc(C)c1-n1nccn1 [Example 124, [(R)-3-(2-Methyl-5-[1,2,3]triazol-2-yl-benzyl)-morpholin-4-yl]-(3-methyl-2-[1,2,3]triazol-2-yl-phenyl)-methanone] |  |  |
| 822 | 24000 | 21 | O=C(c1cc(F)ccc1-n1nccn1)N1CCOC[C@H]1Cc1cccc(-n2nccn2)c1 [Example 26, (5-Fluoro-2-[1,2,3]triazol-2-yl-phenyl)-[(R)-3-(3-[1,2,3]triazol-2-yl-benzyl)-morpholin-4-yl]-methanone] |  |  |
| 406 | 43000 | 7 | Cc1ccc(-n2nccn2)c(C(=O)N2CCOC[C@H]2Cc2cccc(-c3ncon3)c2)c1 [Example 2, (5-Methyl-2-[1,2,3]triazol-2-yl-phenyl)-[(R)-3-(3-[1,2,4]oxadiazol-3-yl-benzyl)-morpholin-4-yl]-methanone] |  |  |
| 263 | 31000 | 4 | Cc1ccc(C(=O)N2C[C@@H](C)OC[C@H]2Cc2cc(-c3ncccn3)ccc2F)c(-n2nccn2)c1 [Example 149, [(2R,5R)-5-(2-Fluoro-5-pyrimidin-2-yl-benzyl)-2-methyl-morpholin-4-yl]-(4-methyl-2-[1,2,3]triazol-2-yl-phenyl)-methanone] |  |  |
| 24 | 9700 | 1 | Cc1cc(C(=O)N2C[C@@H](C)OC[C@H]2Cc2cccc(-n3nccn3)c2)c(-n2nccn2)cc1C [Example 98, (4,5-Dimethyl-2-[1,2,3]triazol-2-yl-phenyl)-[(2R,5R)-2-methyl-5-(3-[1,2,3]triazol-2-yl-benzyl)-morpholin-4-yl]-methanone] |  |  |
